{"source": "patent US9795626B2", "about": "“Cancer therapy using miRNAs” (THE UNIVERSITY OF WESTERN AUSTRALIA, priority 2012, dated 2017)", "key": {"A375 melanoma cells [1]": {"system": "A375 melanoma cells", "experiment": "xCELLigence real-time cell migration assay", "assay_type": "cell-based", "details": "further study, 20-25 hour period", "text": "(§1) Cell migration and invasion was monitored with a Real-Time Cell Analyser dual-plate (RTCA DP) xCELLigence System (Roche Applied Science; Mannheim, Germany). This instrument employs cellular migration plates (CIM-plate 16) which contain microelectronic sensors on the underside of an 8 μm microporous polyethylene terephthalate (PET) membrane of a Boyden-like upper chamber and a lower chamber containing media or chemoattractant. As cells migrate or invade from the upper chamber to the lower chamber they interact with the sensors causing an increase in electrical impedance. Changes in cell impedance over time relates to a change in the number of cells interacting with the sensors, allowing real-time measurement of cell migration as a cell index value. […] After 48 h incubation cells were trypsinised, resuspended in serum free media and seeded into the upper chamber of CIM-plates. The lower chambers were filled with media containing 10% FBS (chemoattractant) or serum free media as a control. Migration was monitored over a 24 hour period with impedance measurements every 15 min. For invasion assays, the CIM-plates were coated with Matrigel (BD Biosciences; diluted at a ratio of 1:20 in serum free medium) approximately 4 hours prior to seeding cells."}, "WM266-4 melanoma cells [2]": {"system": "WM266-4 melanoma cells", "experiment": "xCELLigence real-time cell migration assay", "assay_type": "cell-based", "text": "as §1"}, "A2058 melanoma cells [3]": {"system": "A2058 melanoma cells", "experiment": "xCELLigence real-time cell migration assay", "assay_type": "cell-based", "text": "as §1"}, "1205Lu melanoma cells [4]": {"system": "1205Lu melanoma cells", "experiment": "xCELLigence real-time cell migration assay", "assay_type": "cell-based", "details": "further study, 20-25 hour period", "text": "as §1"}, "A2058 melanoma cells [5]": {"system": "A2058 melanoma cells", "experiment": "Cell viability assay (MTS) after miRNA transfection, with or without drug; Bliss synergy analysis", "quoted_text": "(§5) Cells were seeded in 96-well plates at a density of 2.5×10^3 cells per well and transfected with miRNA precursor molecules as above. Cell viability was measured 5 days after transfection using CellTitre 96 Aqueous One Solution Cell Proliferation Assay Kit (MTS assay) and a FLUOstar OPTIMA microplate reader. For synergy analysis between drugs and miR-7-5p, cells were plated as above and drug or DMSO was added 3 days after transfection with miR-7-5p or miR-NC for 4 days, at which time cell viability was measured (7 days after transfection).\n(§6) Statistical significance was calculated using Student's t test (one-tailed, unpaired) and the level of significance was set at p<0.05. Drug sensitivity (IC50) was calculated using GraphPad Software (GraphPad Prism, version 5.04). The Bliss additivism model was used for synergy analysis. […] Here, Ebliss is the fractional inhibition expected if the combination of miR-7-5p and drug B was exactly additive. If the experimentally measured fractional inhibition is greater than Ebliss, the combination is synergistic."}, "P-ERK 1/2": {"system": "P-ERK 1/2", "experiment": "Immunoblotting after transfection of melanoma cells", "assay_type": "cell-based", "details": "A2058; 15 nM, 3 days post-transfection", "procedure": "(§2) Optimal cell numbers were transfected using Lipofectamine 2000 (Invitrogen) with miR-7-5p (SEQ ID NO: 1; synthesised by Ambion) or miR-NC precursor molecules (hereinafter “miR-NC”; Ambion AM17110) at final concentrations ranging from 1-30 nM. For siRNA transfections, Silencer Select siRNAs (Invitrogen) Negative Control No. 1 (si-NC; 4390843), si-IRS-2 #1 (s16486), si-IRS-2 #2 (s16487) were transfected using Lipofectamine 2000 (Invitrogen) according to the manufacturer's protocol. Cells were harvested 24 hours later for RNA or 2-3 days after transfection for protein extraction.\n(§3) Protein was harvested with Cytoplasmic Extract Buffer (CEB)-containing PhosSTOP phosphatase inhibitors (Roche; New South Wales, Australia) and Complete EDTA-free protease inhibitors (Roche). Cell lysates were frozen at −80° C. overnight, cleared by centrifugation at 13,000×g for 5 min, and supernatants collected. Total protein concentrations were determined by Bio-Rad protein assay (Bio-Rad; New South Wales, Australia) as per manufacturer's instructions and using a FLUOstar OPTIMA microplate reader.\n(§4) Fifteen μg of total protein samples were resolved on NuPAGE NO VEX 4-12% Bis-Tris gels (Invitrogen) and transferred to polyvinylidene fluoride (PVDF) western blotting membranes (Roche). The blots were blocked for 1 hour with Odyssey Blocking Buffer (Millennium Science, Victoria, Australia) and incubated overnight at 4° C. with anti-IGF1R, anti-phospho-IGF1R, anti-IRS-1, anti-IRS-2, anti-phospo-IRS-2, anti-ERK 1/2, anti-phospho-ERK 1/2, anti-Akt, anti-phospho-Akt (Ser-473), anti-PAK1 (all from Cell Signaling Technology, Beverly, Mass.), or anti-FAK (Santa Cruz Biotechnology), anti-phospho-IRS-2 (Ser-731; Abeam, Cambridge, Mass.), or anti-β-actin (Abcam), followed by incubation with infrared-conjugated secondary antibodies for 1 hour at room temperature. The membranes were scanned with an Odyssey SA scanner to visualize protein expression (LICOR Biosciences, Lincoln, Nebr.)."}, "P-IGF1R": {"system": "P-IGF1R", "experiment": "Immunoblotting after transfection of melanoma cells", "assay_type": "cell-based", "details": "15 nM, 3 days post-transfection", "procedure": "as §2, §3, §4"}, "IRS-2": {"system": "IRS-2", "experiment": "Immunoblotting after transfection of melanoma cells", "assay_type": "cell-based", "procedure": "as §2, §3, §4"}, "P-Akt": {"system": "P-Akt", "experiment": "Immunoblotting after transfection of melanoma cells", "assay_type": "cell-based", "details": "SK-MEL-28, WM266-4 and MM96L; 15 nM, 3 days post-transfection", "procedure": "as §2, §3, §4"}, "IRS-1": {"system": "IRS-1", "experiment": "Immunoblotting after transfection of melanoma cells", "assay_type": "cell-based", "details": "15 nM, 3 days post-transfection", "procedure": "as §2, §3, §4"}, "P-IRS-2": {"system": "P-IRS-2", "experiment": "Immunoblotting after transfection of melanoma cells", "assay_type": "cell-based", "procedure": "as §2, §3, §4"}, "IGF1R": {"system": "IGF1R", "experiment": "Immunoblotting after transfection of melanoma cells", "assay_type": "cell-based", "details": "melanoma cell lines; 15 nM, 3 days post-transfection, vs miR-NC", "procedure": "as §2, §3, §4"}, "PAK1": {"system": "PAK1", "experiment": "Immunoblotting after transfection of melanoma cells", "assay_type": "cell-based", "procedure": "as §2, §3, §4"}, "FAK": {"system": "FAK", "experiment": "Immunoblotting after transfection of melanoma cells", "assay_type": "cell-based", "details": "WM266-4 and A2058; 30 nM, protein harvested at time of migration assay (48 hours)", "procedure": "as §2, §3, §4"}, "WM266-4 melanoma cells [6]": {"system": "WM266-4 melanoma cells", "experiment": "Cell viability assay (MTS) after miRNA transfection, with or without drug; Bliss synergy analysis", "details": "MTS assay, data not shown"}, "IRS-2 mRNA": {"system": "IRS-2 mRNA", "experiment": "RT-qPCR of IRS-2 mRNA after transfection", "assay_type": "cell-based", "details": "WM266-4 and A2058; 24 hours after transfection, normalised to GAPDH, vs miR-NC", "procedure": "as §2"}, "MM96L melanoma cells": {"system": "MM96L melanoma cells", "experiment": "Cell viability assay (MTS) after miRNA transfection, with or without drug; Bliss synergy analysis", "quoted_text": "as §5, §6"}, "melanoma cell lines": {"system": "melanoma cell lines", "experiment": "Cell viability assay (MTS) after miRNA transfection", "assay_type": "cell-based", "details": "melanoma cells", "quoted_text": "Cells were seeded in 96-well plates at a density of 2.5×10^3 cells per well and transfected with miRNA precursor molecules as above. Cell viability was measured 5 days after transfection using CellTitre 96 Aqueous One Solution Cell Proliferation Assay Kit (MTS assay) and a FLUOstar OPTIMA microplate reader."}, "A375 melanoma cells [7]": {"system": "A375 melanoma cells", "experiment": "xCELLigence real-time cell invasion assay (Matrigel)", "assay_type": "cell-based", "details": "further study, 20-25 hour period", "text": "as §1"}, "WM266-4 melanoma cells [8]": {"system": "WM266-4 melanoma cells", "experiment": "xCELLigence real-time cell invasion assay (Matrigel)", "assay_type": "cell-based", "details": "further study, 20-25 hour period", "text": "as §1"}, "A2058 melanoma cells [9]": {"system": "A2058 melanoma cells", "experiment": "xCELLigence real-time cell invasion assay (Matrigel)", "assay_type": "cell-based", "details": "further study, 20-25 hour period", "text": "as §1"}, "1205Lu melanoma cells [10]": {"system": "1205Lu melanoma cells", "experiment": "xCELLigence real-time cell invasion assay (Matrigel)", "assay_type": "cell-based", "details": "further study, 20-25 hour period", "text": "as §1"}, "SK-MEL-28 melanoma cells": {"system": "SK-MEL-28 melanoma cells", "experiment": "Cell viability assay (MTS) after miRNA transfection, with or without drug; Bliss synergy analysis", "details": "for EObs: observed fractional inhibition of the combination", "quoted_text": "as §5, §6"}, "[11]": {"system": "melanoma cell lines (SK-MEL-28, WM266-4, MM96L and A2058)", "experiment": "Drug sensitivity assay (cell viability after 4 days of drug)", "assay_type": "cell-based", "details": "96 h, range over the melanoma cell lines"}, "[12]": {"details": "further study, 20-25 hour period"}, "[13]": {"details": "MTS assay 5 days post-transfection"}, "[14]": {"details": "WM266-4 and A2058, 30 nM, protein harvested at time of migration assay (48 hours)"}, "[15]": {"details": "WM266-4 and A2058, 72 hours after transfection, vs miR-NC"}}, "note": "Values joined by “and” are separate entries in the source; they are usually repeats but may differ in a detail not shown here. Equal values may be shown once."}
{"compound": "miR-7-5p: Synthetic miRNA precursor molecules corresponding to human miR-7-5p (Ambion, PM10047); SEQ ID NO: 1 (UGGAAGACUAGUGAUUUUGUUGU; synthetic precursor duplex form, further chemistry not given here; listed as Homo sapiens)", "values": [{"measurement": "rate of cell migration compared with miR-NC", "setting": "A375 melanoma cells [1]", "result": "significantly reduced, or even blocked"}, {"measurement": "cell migration compared with miR-NC", "setting": "WM266-4 melanoma cells [2]; 30 nM, seeded 48 hours after transfection, monitored 24 hours, data not shown", "result": "significantly inhibited"}, {"measurement": "rate of cell migration compared with miR-NC", "setting": "WM266-4 melanoma cells [2]; [12]", "result": "significantly reduced, or even blocked"}, {"measurement": "cell migration compared with miR-NC", "setting": "A2058 melanoma cells [3]; 30 nM, seeded 48 hours after transfection, monitored 24 hours", "result": "significantly inhibited"}, {"measurement": "rate of cell migration compared with miR-NC", "setting": "A2058 melanoma cells [3]; [12]", "result": "significantly reduced, or even blocked"}, {"measurement": "rate of cell migration compared with miR-NC", "setting": "1205Lu melanoma cells [4]", "result": "significantly reduced, or even blocked"}, {"measurement": "cell viability compared with miR-NC", "setting": "A2058 melanoma cells [5]; [13]", "result": "significantly reduced"}, {"measurement": "P-ERK 1/2", "setting": "P-ERK 1/2", "result": "downregulated"}, {"measurement": "IGF1R phosphorylation", "setting": "P-IGF1R; A2058", "result": "decreased"}, {"measurement": "IGF1R phosphorylation", "setting": "P-IGF1R; MM96L", "result": "increased"}, {"measurement": "IGF1R phosphorylation", "setting": "P-IGF1R; SK-MEL-28", "result": "did not change"}, {"measurement": "IRS-2 expression", "setting": "IRS-2; A2058, 15 nM, 3 days post-transfection", "result": "reduced"}, {"measurement": "IRS-2 expression", "setting": "IRS-2; [14]", "result": "reduction"}, {"measurement": "expression of IRS-2 protein", "setting": "IRS-2; [15]", "result": "reduced"}, {"measurement": "P-Akt", "setting": "P-Akt", "result": "downregulated"}, {"measurement": "IRS-1 expression", "setting": "IRS-1; A2058", "result": "decrease"}, {"measurement": "IRS-1 expression", "setting": "IRS-1; SK-MEL-28 and WM266-4", "result": "modest increase"}, {"measurement": "IRS-2 phosphorylation", "setting": "P-IRS-2; SK-MEL-28, 15 nM, 3 days post-transfection", "result": "reduced"}, {"measurement": "active form of IRS-2 (P-IRS-2)", "setting": "P-IRS-2; [15]", "result": "reduced"}, {"measurement": "IGF1R expression", "setting": "IGF1R", "result": "No change"}, {"measurement": "protein level of PAK1", "setting": "PAK1; SK-MEL-28, WM266-4, MM96L and A2058, 15 nM, 3 days post-transfection, vs miR-NC", "result": "reductions"}, {"measurement": "PAK1 expression", "setting": "PAK1; [14]", "result": "reduction"}, {"measurement": "FAK expression", "setting": "FAK", "result": "reduction"}, {"measurement": "cell viability compared with miR-NC", "setting": "WM266-4 melanoma cells [6]", "result": "significantly reduced"}, {"measurement": "levels of IRS-2 mRNA", "setting": "IRS-2 mRNA", "result": "significantly decreased"}, {"measurement": "cell viability compared with miR-NC", "setting": "MM96L melanoma cells; [13]", "result": "significantly reduced"}, {"measurement": "final miR-7-5p concentration at which viability was significantly reduced", "setting": "melanoma cell lines", "result": 1, "unit": "nM"}, {"measurement": "rate of cell invasion compared with miR-NC", "setting": "A375 melanoma cells [7]", "result": "significantly reduced, or even blocked"}, {"measurement": "rate of cell invasion compared with miR-NC", "setting": "WM266-4 melanoma cells [8]", "result": "significantly reduced, or even blocked"}, {"measurement": "rate of cell invasion compared with miR-NC", "setting": "A2058 melanoma cells [9]", "result": "significantly reduced, or even blocked"}, {"measurement": "rate of cell invasion compared with miR-NC", "setting": "1205Lu melanoma cells [10]", "result": "significantly reduced, or even blocked"}, {"measurement": "cell viability compared with miR-NC", "setting": "SK-MEL-28 melanoma cells; MTS assay, data not shown", "result": "significantly reduced"}]}
{"compound": "CCCS(=O)(=O)Nc1ccc(F)c(C(=O)c2c[nH]c3ncc(-c4ccc(Cl)cc4)cc23)c1F", "note": "[PLX4032, vemurafenib]", "values": [{"measurement": "EObs", "setting": "A2058 melanoma cells [5]; [miR-7-5p] 5 nM + [drug] 100 nM, observed fractional inhibition of the combination", "result": "0.855 and 0.853 and 0.790"}, {"measurement": "IC50", "setting": "[11]", "result": "80 to 230", "unit": "nM"}, {"measurement": "EObs", "setting": "MM96L melanoma cells; [miR-7-5p] 2.5 nM^ + [drug] 50 nM, observed fractional inhibition of the combination", "result": "0.972 and 0.803 and 0.547"}, {"measurement": "EObs", "setting": "SK-MEL-28 melanoma cells; [miR-7-5p] 5 nM + [drug] 50 nM", "result": 0.661}, {"measurement": "EObs", "setting": "SK-MEL-28 melanoma cells; [miR-7-5p] 5 nM + [drug] 100 nM", "result": 0.773}]}
